Data on three molecules can be found in article PMC3404088, “Development of a Small D-Enantiomeric Alzheimer’s Amyloid-β Binding Peptide Ligand for Future In Vivo Imaging Applications” (PLoS ONE, 2012).

For test [1], the target named is T1, Aβ plaques in brain sections of transgenic APP (V717I) x PS1 (A246E) mice (Homo sapiens, UniProt P05067).
T1 construct: triple image overlay of respective stains reveal that the ϕ-compounds identify plaques; from tissue; host or cells: brain cryosections of APP (V717I) x PS1 (A246E) transgenic mice
The experiment in a line: Ex vivo staining of mouse brain slices by FITC labeled compounds. The note with it: for staining / recognition of Aβ plaques: 0.01 mg/ml ϕ-labeled compound, 2 h, 10 µm cryostat sections; for staining / recognition of Aβ plaques / background signal / staining pattern: fluorescence microscopy; for background signal: 0.01 mg/ml; for overlay with 6E10 anti-Aβ staining: co-staining with 6E10 (2 µg/ml) and DAPI, triple overlay. How it is done: In vitro tissue section staining was performed according to previously described protocols with slight modifications. Mouse brains were obtained from male transgenic (tg) APP (London mutation V717l) x PS1 (A246E) mice aged 13–21 months and from female wild type (wt) mice aged 9–10 months. The mice were anesthetized and transcardially perfused with saline. The brains were removed and snap frozen. 10 µm thick sagittal cryostat sections through the whole mouse brain were produced and mounted onto glass slides. ϕ-labeled compounds were applied to investigate binding. Thus, the slides were thawed, washed in PBS and fixed in 4% paraformaldehyde (20 min at RT) just before incubation with ϕ-labeled compounds. One series of sections was treated only with fluorescent compounds (0.01 mg/ml, incubation time 2 h) while another series of sections were incubated with anti-Aβ antibody 6E10 at 1∶500 dilution (SIG-39320, Covance; final antibody concentration was 2 µg/ml) in addition to ϕ-labeled compounds (0.01 mg/ml). The slices were washed in PBS. The sections incubated with ϕ-labeled compound and 6E10 antibody were further incubated for 2 h at RT with Goat-anti-Mouse IgG1– AlexaFluor 555 (A21127, Invitrogen, 1∶1000 dilution) and washed with PBS. Finally, all sections were counterstained with 4’–6-Diamidino-2-phenylindole (DAPI, 32670, Sigma, incubation 5 min at RT) for the visualization of cell nuclei. The slides were mounted using Prolong Gold Antifade mounting medium (P36930, Invitrogen) and coverslipped.
The tissues were analyzed using a fluorescent Zeiss Axioscope 2 Plus microscope using the AxioVision 4 image analysis software.
A further series of slices was stained using a primary anti-fluorescein isothiocyanate antibody combined with alkaline phosphatase reaction for visualization of ϕ-labeled peptides. Briefly, the sections were treated with blocking solution (10% normal goat serum (NGS), 0.25% Triton X-100 in PBS for 1 h at RT) and incubated with primary antibody (rabbit-anti-FITC; Invitrogen) at a dilution of 1∶500. The sections were then washed and incubated for 2 h at RT with the secondary antibody goat-anti-rabbit-alkaline phosphatase (Sigma) at a dilution of 1∶100. After washing, the slides were incubated with BCIP/NBT substrate (Sigma) for 3 min, washed, dehydrated and mounted using Eukitt mounting medium.

The target in test [2] is T2, Aβ1–42 fibrils (Homo sapiens, UniProt P05067).
T2 construct: Aβ1–42 was dissolved in hexafluoroisopropanol (HFIP)
The test is described as follows: SPR single cycle experiments (Biacore T100), heterogeneous ligand model. It counts as binding. Details: Rmax1 / Rmax2 / k off2: unit not given here. The note with it: for Rmax2 / k off1 / k off2 / k on1 / k on2 / Rmax1: PBS pH 7.4, 25°C, 30 µl/min; for Rmax1: global fit of three lowest responding concentrations. How it is done: Aβ1–42 fibrils were prepared as described above. Thereafter, the sample was centrifuged for 10 min at 16000×g, the supernatant discarded and this procedure repeated for 3 times. Formation of fibrils was confirmed by a standard Thioflavin-T fluorescence assay. Aβ1–42 fibrils were covalently immobilized on a CM5 sensor chip via amine coupling. Prior to immobilization of Aβ1–42 fibrils the sample was centrifuged and fibrils resuspended in 10 mM sodium acetate buffer pH 4.0. Flow cell sensor surfaces were activated with a freshly prepared solution of 0.2 M 1-ethyl–3-(3-dimethylaminopropyl)-carbodiimide (EDC) and 0.05 M N-hydroxysuccinimide (NHS) at a constant flow rate of 10 µl/min for 420 s. Aβ1–42 fibrils (∼ 110 µM monomeric Aβ1–42) were injected for 600 s with a flow rate of 10 µl/min. Deactivation of the surface was performed by injection of 1 M ethanolamine-HCl pH 8.5 at the same flow rate and duration as in the activation step. In the reference cells the deactivation step was performed directly after the activation step. All SPR experiments were performed on a Biacore T100 system with series S CM5 sensor chips at 25°C. The system was run with the Biacore T100 Control Software Version 1.1.1. PBS (10 mM sodium phosphate buffer pH 7.4, 137 mM NaCl, 2.7 mM KCl) was chosen as running buffer (as previously during fibril formation) in order to minimize alterations of fibril organization. All buffers were sterile filtered (0.22 µm). After each docking of a sensor chip the detector was normalized with BIAnormalizing solution (70% glycerol, GE Healthcare) to compensate for slight differences in detector responses of individual sensor chips. For all interaction analyses the Type 1 reagent rack was used. Siliconized sample vials were used with their corresponding rubber caps (Type 2, GE Healthcare) to minimize evaporation effects. Throughout all runs the flow rate was set to 30 µl/min. All interaction studies were performed in single-cycle mode. Here, five different concentrations of analyte were passed through a reference cell and subsequently through flow cells with immobilized ligand within the same binding cycle for 60 seconds, starting with the lowest concentration. Successive injections were performed in the order of increasing concentrations. Each following concentration was a fivefold increase of the previous. The lowest analyte concentration was chosen to be 100 nM and therefore the following were 500, 2500, 12500 and 62500 nM. Biacore data were evaluated using BiaEvaluation 4.1.1 (GE Healthcare) and Biacore T100 Evaluation Software (GE Healthcare). Obtained binding data with compounds were double referenced. This was achieved by collecting the data in dual-channel mode with a reference flow cell connected upstream of the flow cell with immobilized Aβ1–42 fibrils and the subtraction of the obtained binding responses with a blank buffer injection (PBS).

Each structure is given as a SMILES string. “Also recorded” adds a separate entry of the source. Square brackets hold non-standard residues; d marks the D form. Peptide text beside a SMILES is read from it. * marks the point of attachment. 5FAM = O=C1OC2(c3ccc(O)cc3Oc3cc(O)ccc32)c2ccc(C(=O)*)cc21

With `CC[C@@H](C)[C@@H](NC(=O)[C@@H](Cc1c[nH]cn1)NC(=O)[C@@H](CCCNC(=N)N)NC(=O)[C@@H](Cc1ccc(O)cc1)NC(=O)[C@@H](Cc1c[nH]cn1)NC(=O)[C@@H](CO)NC(=O)[C@H](N)CCC(N)=O)C(=O)N[C@H](CO)C(=O)N1CCC[C@@H]1C(=O)N[C@H](C)C(=O)N[C@H](CCC(N)=O)C(=O)N[C@H](CCCCN)C(=O)N[C@H](CCCCNC(=O)c1ccc2c(c1)C(=O)OC21c2ccc(O)cc2Oc2cc(O)ccc21)C(=O)O` [ACI-87-Kϕ] (H-[dQ][dS][dH][dY][dR][dH][dI][dS][dP][dA][dQ][dK][dK](5FAM)-OH; N-terminus and C-terminus assumed), in test [1], the “staining / recognition of Aβ plaques” value is “readily recognized amyloid plaques”, the “background signal” value was “high background fluorescence” and the “overlay with 6E10 anti-Aβ staining” value is “nearly no overlay with 6E10 anti-Aβ was detected”. Moreover, in test [2], the Rmax2 came to 36.2, the “k off1” value stood at 1.84e-3, the “k off2” value is reported as 0.0407 and the “k on1” value is 206. In test [2], the “k on2” value is recorded as 1.57e3 and the Rmax1 was 43.3.

As for `CC[C@@H](C)[C@@H](NC(=O)[C@@H](Cc1c[nH]cn1)NC(=O)[C@@H](CCCNC(=N)N)NC(=O)[C@@H](Cc1ccc(O)cc1)NC(=O)[C@@H](Cc1c[nH]cn1)NC(=O)[C@H](N)CO)C(=O)N[C@H](CO)C(=O)N1CCC[C@@H]1C(=O)N[C@H](C)C(=O)N[C@H](CCC(N)=O)C(=O)N[C@H](CCCCN)C(=O)N[C@H](CCCCNC(=O)c1ccc2c(c1)C(=O)OC21c2ccc(O)cc2Oc2cc(O)ccc21)C(=O)O` [ACI-88-Kϕ] (H-[dS][dH][dY][dR][dH][dI][dS][dP][dA][dQ][dK][dK](5FAM)-OH; N-terminus and C-terminus assumed), in test [1], the “staining / recognition of Aβ plaques” value was “stained plaques most intensively; also recorded: readily recognized amyloid plaques”, the “background signal” value was “lowest background signal of all peptides”, the “overlay with 6E10 anti-Aβ staining” value was “match 6E10 anti-Aβ staining quite well; also recorded: good overlap with 6E10 Aβ staining” and the “staining pattern” value was “stained the core of plaques”. For the same molecule, in test [2], the “dissociation constant (lowest K D of the two, words)” value is given as “submicromolar range”; the Rmax2 is listed as 63.3; the “k off1” value amounted to 7.22e-3; the “k off2” value is listed as 0.0553. For the same molecule, in test [2], the “k on1” value was 1.71e4, the “k on2” value amounted to 930 and the Rmax1 was 9.96.

As to `CC[C@@H](C)[C@@H](NC(=O)[C@@H](Cc1c[nH]cn1)NC(=O)[C@@H](CCCNC(=N)N)NC(=O)[C@@H](Cc1ccc(O)cc1)NC(=O)[C@@H](Cc1c[nH]cn1)NC(=O)[C@@H](CO)NC(=O)[C@H]1CCCN1)C(=O)N[C@H](CO)C(=O)N1CCC[C@@H]1C(=O)N[C@H](C)C(=O)N[C@H](CCC(N)=O)C(=O)N[C@H](CCCCN)C(=O)N[C@H](CCCCNC(=O)c1ccc2c(c1)C(=O)OC21c2ccc(O)cc2Oc2cc(O)ccc21)C(=O)O` [ACI-89-Kϕ] (H-[dP][dS][dH][dY][dR][dH][dI][dS][dP][dA][dQ][dK][dK](5FAM)-OH; N-terminus and C-terminus assumed), in test [1], the “staining / recognition of Aβ plaques” value is given as “stained plaques most intensively; also recorded: readily recognized amyloid plaques”, the “overlay with 6E10 anti-Aβ staining” value is reported as “match 6E10 anti-Aβ staining quite well” and the “staining pattern” value is given as “more similar to the one of 6E10 which also stains diffuse Aβ plaques”. Also, the “plaque detection via anti-fluorescein isothiocyanate antibody and alkaline phosphatase” value in test [1] (tg mouse brain slices immersed in ϕ-peptide, BCIP/NBT chromogenic detection, light microscope) is listed as “abundant chromogenic deposits”. Further, in test [2], the Rmax2 is given as 19.4, the “k off1” value was 0.162, the “k off2” value turned out to be 0.0118 and the “k on1” value turned out to be 2.03e4. For the same molecule, in test [2], the “k on2” value is on record as 3.34e3 and the Rmax1 stood at 21.8.
